Measured values reported in patent publication US11324832B2, “Tripartite modulators of endosomal G protein-coupled receptors” (Endosome Therapeutics, Inc., priority 2015, dated 2022).
*1 amine or outer side, *2 acyl side, *3 side chain or, on linkers, in order; H or OH if unused. Where a SMILES comes first, the peptide text is derived from it. Bridges are numbered along the chain shown (N, C = ends). Where no end group is shown, it is not given here. [ ]: non-standard residue; d: D form. The star is where a group is joined. Leu(3R-OH,Nα-propionyl) = CCC(=O)N[C@H](C(=O)*)[C@H](O)C(C)C; X2 = CC(C)[C@@H](O[*:3])[C@H](N[*:1])C(=O)[*:2]; NMeT = CN[C@H](C(=O)O)[C@@H](C)O; dPhLac = O=C(O)[C@H](O)Cc1ccccc1; NMeA = CN[C@@H](C)C(=O)O; NMeDha = C=C(NC)C(=O)O

Tests used:
[1] = system: capsaicin-evoked mechanical hyperalgesia in mice; assay: Capsaicin-evoked mechanical hyperalgesia and edema in mice
Protocol: To evaluate the importance of NK1R, clathrin and dynamin, mice (C57BL/6, male, 6-10 weeks) were injected intrathecally (L3/L4) with vehicle, NK1R antagonist SR140,333, Dy4, Dy4 inact, PS2 or PS2 inact. After 30 min, intraplantar injections of vehicle or capsaicin were made into the left hindpaw. Mechanical hyperalgesia was measured by stimulation of the plantar surface of the left and right paws with von Frey filaments, and inflammatory edema was assessed by measuring left paw thickness with calipers.
Mice were acclimatized to the experimental apparatus and environment for 1-2 h on 2 successive days before experiments. Mechanical hyperalgesia was assessed by paw withdrawal to stimulation of the plantar surface of the hind-paw with graded von Frey filaments. On the day before the study, von Frey scores were measured in triplicate to establish a baseline for each animal. To assess edema of the paw, hindpaw thickness was measured using digital calipers before and after treatments. For intraplantar injections, mice were sedated (5% isoflurane). Capsaicin (5 μg), Complete Freund's Adjuvant (CFA, 2 mg/ml), or vehicle (capsaicin, 20% ethanol, 10% Tween 80, 70% saline; CFA, saline) was injected subcutaneously into the plantar surface of the left hindpaw (10 μl). von Frey scores (left and right paws) and paw thickness (left paw) were measured for 30-240 min after capsaicin, and 36-40 h after injection of CFA. Results are expressed as percent pre-injected values. For assessment of nocifensive behavior, mice were sedated and formalin (4%, 10 μl) was injected subcutaneously into the plantar surface of the left hindpaw. Mice were placed in a Perspex container and nocifensive behavior (flinching, licking, biting of the injected paw) was recorded for 60 min. The total number of nocifensive events was subdivided into acute (I, 0-10 min) and tonic (II, 10-60 min) phases. […] Investigators were unaware of test agents.
Intrathecal injections (5 μl, L3/L4) were made into conscious mice. Dy4, Dy4 inact, PS2, PS2 inact (all 50 μM), SR-140333 (15 μM), SM-19712 (8 mM), U0126 (100 μM), or vehicle (1% DMSO/saline) was injected intrathecally 30 min before intra-plantar injection of capsaicin or formalin, or 36 h after CFA.

NK1R [2] = molecular target: T1, NK1R (Rattus norvegicus, UniProt P14600); assay: FRET biosensors of compartmentalized signaling (ERK, PKC, cAMP) in NK1R-expressing HEK293 cells; format: cell-based; design: Full length and truncated 6312 rat HA-NK1R have been described; expressed in transfected cells; host or cells: HEK293 (transient)
T1 sequence (P14600 whole entry, the tested form may be a part): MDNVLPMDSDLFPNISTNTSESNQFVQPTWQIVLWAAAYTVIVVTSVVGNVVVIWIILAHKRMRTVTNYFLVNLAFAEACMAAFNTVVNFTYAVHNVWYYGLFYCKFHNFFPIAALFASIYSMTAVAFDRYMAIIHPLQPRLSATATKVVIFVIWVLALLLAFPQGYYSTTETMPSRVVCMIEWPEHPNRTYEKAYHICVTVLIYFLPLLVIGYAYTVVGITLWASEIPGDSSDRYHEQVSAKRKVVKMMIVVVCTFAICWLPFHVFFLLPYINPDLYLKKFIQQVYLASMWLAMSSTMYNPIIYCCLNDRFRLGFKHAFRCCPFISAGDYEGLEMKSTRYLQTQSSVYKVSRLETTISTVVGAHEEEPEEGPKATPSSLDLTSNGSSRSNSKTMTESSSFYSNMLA
Protocol: To study the link between NK1R trafficking and signaling, the NK1R and Förster Resonance Energy Transfer (FRET) biosensors targeted to detect activated ERK in the cytosol (CytoEKAR) or nucleus (NucEKAR, FIG. 2A), activated PKC at the plasma membrane (pmCKAR) or in the cytosol (CytoCKAR, FIG. 2C), and cAMP at the plasma membrane (pmEpac2) or in the cytosol (CytoEpac2, FIG. 2E) were expressed in HEK293 cells.
HEK293 cells were transfected with 55 ng/well rat NK1R with N-terminal HA. 11 epitope tag (HA-NK1R) or CLR plus RAMP1 and 40 ng/well FRET biosensors. FRET was assessed 48 h after transfection, following serum restriction (0.5% FBS overnight). For experiments using clathrin or dynamin siRNA, cells were transfected with 55 ng/well rat HA-NK1R, 40 ng/well FRET biosensor and 25 nM/well scrambled, clathrin or dynamin ON-TARGETplus SMARTpool siRNA (GE Dharmacon). FRET was assessed 72 h after transfection, following serum restriction (0.5% FBS overnight). Cells were equilibrated in HBSS at 37° C. and FRET was analyzed using a GE Healthcare INCell 2000 Analyzer. For GFP/RFP emission ratio analysis, cells were sequentially excited using a FITC filter (490/20) with emission measured using dsRed (605/52) and FITC (525/36) filters, and a polychroic optimized for the FITC/dsRed filter pair (Quad4). For CFP/YFP emission ratio analysis, cells were sequentially excited using a CFP filter (430/24) with emission measured using YFP (535/30) and CFP (470/24) filters, and a polychroic optimized for the CFP/YFP filter pair (Quad3). Cells were imaged every 1 min, allowing image capture of 14 wells per minute. Baseline emission ratio images were captured for 4 min. […] Cells were then stimulated with the positive control (200 nM phorbol 12,13-dibutyrate for ERK; 200 nM phorbol 12,13-dibutyrate with phosphatase inhibitor cocktail for PKC; 10 μM forskolin, 100 μM 3-isobutyl-1-methylxanthine, 100 nM PGE1 for cAMP) for 10 min to generate a maximal increase, and positive emission ratio images were captured for 4 min. Data were analyzed as described and expressed as emission ratios relative to baseline for each cell (F/F0). Cells with >10% change in F/F0 after stimulation with positive controls were selected for analysis.

NK1R [3] = molecular target: T1, NK1R; assay: BRET of NK1R trafficking (KRas-Venus, Rab5a-Venus) in HEK293 cells; format: cell-based; design: Full length and truncated 6312 rat HA-NK1R have been described; expressed in transfected cells; host or cells: HEK293 (transient); conditions: inhibitor plus SP
Protocol: Bioluminescence Resonance Energy Transfer (BRET) was employed to quantitatively assess the proximity of the NK1R to key regulators of GPCR trafficking (βarrs), and resident proteins of plasma (KRas) and early endosomal (Rab5a) membranes in HEK293 cells (FIG. 1A).
HEK293 cells were transfected with the following cDNAs: 1 μg NK1R-RLuc8 or 1 μg CLR-RLuc8+1 μg Myc-RAMP1+4 μg KRas-Venus, 4 μg Rab5a-Venus, 4 μg βarr1-YFP, or 4 μg βarr2-YFP; or 1 μg NK1R+0.5 μg Gαq-RLuc8+1 μg Gβ1+4 μg Gγ2-Venus; or 1 μg NK1R+0.5 μg Gαq-RLuc8+1 μg Gβ1+1 μg Gγ2+4 μg Rab5a-Venus. After 48 h, cells were equilibrated in Hank's balanced salt solution (HBSS) at 37° C., and incubated with the RLuc substrate coelenterazine h (5 μM, 15 min).

[4] = system: formalin-evoked nocifensive behavior in mice; assay: Formalin-evoked nocifensive behavior in mice; format: in vivo, mouse; conditions: i.t. 3 h before intraplantar formalin
Text: (§1) Investigators were unaware of test agents.

[5] = system: CFA-induced mechanical hyperalgesia in mice; assay: CFA-induced mechanical hyperalgesia in mice; format: in vivo, mouse; conditions: antagonist i.t. 36 h after intraplantar CFA
Text: as §1

[6] = i.t. 3 h before intraplantar capsaicin
[7] = endocytic or signaling inhibitor plus SP 1 nM
[8] = i.t. 30 min before intraplantar capsaicin
[9] = preincubated 30 min, then immediately challenged with SP

| Compound | effect on capsaicin-evoked mechanical hyperalgesia (von Frey, left paw) [1, 6] | effect on SP stimulation of cytosolic PKC (NK1R [2]; [7]) | effect on SP stimulation of cytosolic cAMP (NK1R [2]; [7]) | effect on formalin-evoked nocifensive behavior (both phases) [4] | effect on capsaicin-evoked mechanical hyperalgesia (von Frey, left paw) [1, 8] | other results |
| --- | --- | --- | --- | --- | --- | --- |
| FC(F)(F)c1cc(CO[C@H]2CCCN[C@H]2c2ccccc2)cc(C(F)(F)F)c1 [L-733,060] | small and transient | – | – | – | – | effect on capsaicin-evoked hyperalgesia ([1]; i.t. 3 h before capsaicin, Example 2, expected): only small and transient |
| C=C1C(=O)N[C@@H](C)C(=O)N(C)[C@@H](C)C(=O)N[C@@H]([C@H](OC(=O)[C@@H](NC(=O)CC)[C@H](O)C(C)C)C(C)C)C(=O)N(C)[C@@H]([C@@H](C)OC)C(=O)O[C@H](C(C)C)[C@H](NC(C)=O)C(=O)O[C@H](Cc2ccccc2)C(=O)N1C [UBO-QIC] (Ac-[X2][dPhLac][NMeDha]A[NMeA][X2](Leu(3R-OH,Nα-propionyl))[NMeT](Me); ester 1-C) | – | prevented activation of cytosolic PKC | prevented SP generation of cytosolic cAMP | – | – | effect on SP stimulation of nuclear ERK (NK1R [2]; [7]): prevented SP activation of nuclear ERK; effect on SP-induced NK1R endocytosis (BRET KRas-Venus decrease, Rab5a-Venus increase) (NK1R [3]): did not affect NK1R endocytosis |
| CN(C)CCCn1cc(C2=C(c3c[nH]c4ccccc34)C(=O)NC2=O)c2ccccc21 [GF109203X] | – | – | prevented SP generation of cytosolic cAMP | – | – | – |
| VTHRLAGLLSRSGGVVKDNFVPTNVGSEAF-NH2 [CGRP8-37] | more completely than CGRP8-37 | – | – | more completely than CGRP8-37 | – | – |
| NCCCC[C@H](NC(=O)[C@@H](Cc1cc(Br)c(O)c(Br)c1)NC(=O)N1CCC(N2Cc3ccccc3NC2=O)CC1)C(=O)N1CCN(c2ccncc2)CC1 [olcegepant] | inhibited capsaicin-evoked mechanical hyperalgesia | – | – | similarly inhibited capsaicin-evoked mechanical hyperalgesia and both phases of formalin-evoked nocifensive behavior | – | – |
| Cc1nn(-c2ccccc2)c(NC(=O)NS(=O)(=O)c2ccc(Cl)cc2)c1C#N [SM-19712] | – | – | – | – | had no effect on hyperalgesia | – |
| N#CC(=C(/N)Sc1ccccc1N)/C(C#N)=C(\N)Sc1ccccc1N [Compound U0126] | – | – | – | – | inhibited capsaicin-evoked hyperalgesia | – |
| O=C(O)CN(CCOCCOCCN(CC(=O)O)CC(=O)O)CC(=O)O [EGTA] | – | prevented activation of cytosolic PKC | prevented SP generation of cytosolic cAMP | – | – | – |
| CC(C)Oc1cccc(CC(=O)N2CCC[C@](CC[N+]34CCC(c5ccccc5)(CC3)CC4)(c3ccc(Cl)c(Cl)c3)C2)c1 [SR140,333] | – | – | – | more effectively than spantide or SR140333 | inhibited hyperalgesia | antagonism of SP activation of cytosolic ERK, pre-incubation (NK1R [2]; [9]): blocked activation of nuclear and cytosolic ERK; antagonism of SP activation of nuclear ERK, pre-incubation (NK1R [2]; [9]): blocked activation of nuclear and cytosolic ERK; effect on CFA-induced hyperalgesia [5]: minor and transient; effect on capsaicin-evoked edema (left paw thickness) [1, 8]: unaffected |
| COc1ccc2c(c1)CC[C@@H]1[C@@H]2CC[C@]2(C)[C@@H](NCCCCCCN3C(=O)C=CC3=O)CC[C@@H]12 [Compound U73122] | – | prevented activation of cytosolic PKC | – | – | – | – |
